According to the supplement of paper PMC10307832:

Experiments:
Experiment in all cases: relative viability (nuclei count vs DMSO), 5 days (fraction); higher = more cells survive
XMD8-85 + Vorinostat = compound: CN1CCN(CC1)C2=CC(=C(C=C2)NC3=NC=C4C(=N3)N(C5=CC=CC=C5C(=O)N4C)C)OC [XMD8-85] + O=C(CCCCCCC(=O)Nc1ccccc1)NO [Vorinostat] (partner 1 µM)
Procedure, shortened: (§1)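 One day after seeding in 1536-well plates, lung cancer cell lines were dosed by pin tool. Dosing was either single-drug or a fixed anchor-drug dose plus five library-drug doses (not always all listed) in √10 steps. After 5 days, nuclei were stained in one fix-and-stain step and counted on 4× images, and relative viability is the nuclei count of treated wells over that of vehicle wells, given as the median of duplicate plates.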

4EGI-1 + Luminespib = compound: O=C(O)C(Cc1ccccc1[N+](=O)[O-])=NNc1nc(-c2ccc(Cl)c(Cl)c2)cs1 (mixture of isomers) [4EGI-1] + CCNC(=O)c1noc(-c2cc(C(C)C)c(O)cc2O)c1-c1ccc(CN2CCOCC2)cc1 [Luminespib] (partner 0.01 µM)
Procedure, shortened: as §1

4EGI-1 + Tozasertib = compound: O=C(O)C(Cc1ccccc1[N+](=O)[O-])=NNc1nc(-c2ccc(Cl)c(Cl)c2)cs1 (mixture of isomers) [4EGI-1] + Cc1cc(Nc2cc(N3CCN(C)CC3)nc(Sc3ccc(NC(=O)C4CC4)cc3)n2)n[nH]1 [Tozasertib] (partner 0.1 µM)
Procedure, shortened: as §1

4EGI-1 + Olaparib = compound: O=C(O)C(Cc1ccccc1[N+](=O)[O-])=NNc1nc(-c2ccc(Cl)c(Cl)c2)cs1 (mixture of isomers) [4EGI-1] + O=C(c1cc(Cc2n[nH]c(=O)c3ccccc23)ccc1F)N1CCN(C(=O)C2CC2)CC1 [Olaparib] (partner 8 µM)
Procedure, shortened: as §1

Cell Line | relative viability (XMD8-85 + Vorinostat; first compound 0.08 µM) | relative viability (XMD8-85 + Vorinostat; first compound 0.253 µM) | relative viability (XMD8-85 + Vorinostat; first compound 0.8 µM) | relative viability (XMD8-85 + Vorinostat; first compound 2.53 µM) | relative viability (XMD8-85 + Vorinostat; first compound 8 µM) | relative viability (4EGI-1 + Luminespib; first compound 0.5 µM) | relative viability (4EGI-1 + Luminespib; first compound 1.581 µM) | relative viability (4EGI-1 + Luminespib; first compound 5 µM) | relative viability (4EGI-1 + Luminespib; first compound 15.81 µM) | relative viability (4EGI-1 + Luminespib; first compound 50 µM) | relative viability (4EGI-1 + Tozasertib; first compound 0.5 µM) | relative viability (4EGI-1 + Tozasertib; first compound 1.581 µM) | relative viability (4EGI-1 + Tozasertib; first compound 5 µM) | relative viability (4EGI-1 + Tozasertib; first compound 15.81 µM) | relative viability (4EGI-1 + Tozasertib; first compound 50 µM) | relative viability (4EGI-1 + Olaparib; first compound 0.5 µM) | relative viability (4EGI-1 + Olaparib; first compound 1.581 µM) | relative viability (4EGI-1 + Olaparib; first compound 5 µM) | relative viability (4EGI-1 + Olaparib; first compound 15.81 µM) | relative viability (4EGI-1 + Olaparib; first compound 50 µM)
NCI-H2342 | 0.767 | 0.75 | 0.72 | 0.927 | 0.991 | 0.854 | 0.758 | 0.724 | 0.904 | 0.677 | 0.549 | 0.598 | 0.655 | 0.544 | 0.511 | 0.472 | 0.429 | 0.43 | 0.569 | 0.51
NCI-H2347 | 0.603 | 0.564 | 0.59 | 0.533 | 0.504 | 0.499 |  | 0.438 | 0.426 | 0.411 | 0.589 |  | 0.557 | 0.46 | 0.467 | 0.555 | 0.487 | 0.567 | 0.607 | 0.533
NCI-H2405 | 0.993 | 0.992 | 1.08 | 1.06 | 0.549 | 0.7 | 0.486 | 0.836 | 0.672 | 0.771 | 0.723 | 0.645 | 0.815 | 0.789 | 0.839 | 0.909 |  | 0.883 | 0.866 | 0.395
NCI-H3122 | 1.02 | 1.17 | 1.03 | 1.08 | 1.38 | 0.082 | 0.129 | 0.0842 | 0.106 | 0.084 | 0.418 |  | 0.387 | 0.334 | 0.116 | 0.578 | 0.554 | 0.667 | 0.448 | 0.301
PC-3 [JPC-3] | 0.963 | 0.875 | 0.68 | 0.912 | 0.465 | 0.829 | 0.717 | 0.718 |  | 0.543 | 0.881 | 0.863 | 0.825 |  | 0.711 | 1.16 |  | 1.17 | 0.526 | 0.484
PC-14 | 0.463 | 0.566 | 0.667 |  | 0.327 | 0.466 |  | 0.195 | 0.155 | 0.155 | 0.584 |  | 0.57 |  | 0.28 | 0.295 |  | 0.239 | 0.1 | 0.0599
RERF-LC-KJ | 0.656 | 0.671 | 0.849 | 0.685 | 0.43 | 1.16 |  | 1.17 | 0.994 | 0.281 | 0.547 |  | 0.425 | 0.363 | 0.216 | 0.97 |  | 0.902 | 0.489 | 0.254
SK-LU-1 |  |  | 0.92 | 0.9 | 0.694 | 0.191 | 0.208 | 0.208 | 0.201 | 0.199 | 0.374 | 0.335 | 0.381 | 0.259 | 0.227 | 0.484 | 0.448 | 0.439 | 0.431 | 0.224
SK-MES-1 | 0.761 | 1.27 | 1.05 | 1.03 | 0.474 | 0.705 | 0.686 | 0.831 | 0.669 | 0.188 | 0.894 | 0.596 | 0.925 | 0.699 | 0.234 | 0.767 | 0.508 | 0.639 | 0.229 | 0.148
SW 900 | 0.372 | 0.584 | 0.434 | 0.671 | 0.188 | 0.253 |  | 0.177 | 0.156 | 0.191 | 0.688 |  | 0.551 | 0.459 | 0.291 | 0.923 | 0.812 | 0.936 | 0.552 | 0.23
SW 1573 | 0.643 | 0.739 | 1.11 | 0.596 | 0.46 | 0.227 | 0.198 | 0.248 | 0.168 | 0.116 | 0.176 | 0.188 | 0.149 | 0.172 | 0.102 | 0.529 | 0.317 | 0.672 | 0.213 | 0.113
UMC-11 | 0.45 | 0.367 | 0.441 | 0.296 | 0.22 | 1.07 | 1.21 | 0.999 | 0.99 | 0.598 | 0.192 | 0.198 | 0.203 | 0.201 | 0.21 | 0.36 | 0.35 | 0.369 | 0.332 | 0.222
